The record followed here is patent US20150191469A1, “COMPOUNDS AND METHODS FOR TREATING HIV” (priority 2012, published 2015).

This assay deals with HIV. Put plainly: MT4 assay: antiviral HIV activity (cell protection, cell titer glo readout at 96 hours). It is filed as cell-based. The conditions noted are these: Human immunodeficiency virus 1, MT4, 96 h, MT4 cells, cell titer glo readout at 96 hours, 10 point dose response; read-out: HIV MT4 Assay IC50. On the procedure:
Antiviral HIV activity and cytotoxicity values for compounds of the invention from Table 1 were measured in parallel in the HTLV-1 transformed cell line MT-4 based on the method previously described (Hazen et al., 2007, In vitro antiviral activity of the novel, tyrosyl-based human immunodeficiency virus (HIV) type 1 protease inhibitor brecanavir (GW640385) in combination with other antiretrovirals and against a panel of protease inhibitor-resistant HIV (Hazen et al., “In vitro antiviral activity of the novel, tyrosyl-based human immunodeficiency virus (HIV) type 1 protease inhibitor brecanavir (GW640385) in combination with other antiretrovirals and against a panel of protease inhibitor-resistant HIV”, Antimicrob. Agents Chemother. 2007, 51: 3147-3154; and Pauwels et al., “Sensitive and rapid assay on MT-4 cells for the detection of antiviral compounds against the AIDS virus”, J. of Virological Methods 1987, 16: 171-185).
Luciferase activity was measured 96 hours later by adding a cell titer glo (Promega, Madison, Wis.). Percent inhibition of cell protection data was plotted relative to no compound control. Under the same condition, cytotoxicity of the compounds was determined using cell titer Glo™ (Promega, Madison, Wis.). IC50s were determined from a 10 point dose response curve using 3-4-fold serial dilution for each compound, which spans a concentration range >1000 fold.
These values are plotted against the molar compound concentrations using the standard four parameter logistic equation:
y=((Vmax*x̂n)/(K̂n+x̂n))+Y2
Y2=minimum y n=slope factor
Vmax=maximum y x=compound concentration [M]
On the technique in general: In ATP-based viability assays light output follows the ATP content of the culture.
Take `Cc1nc2c(cc(-c3ccnc(N4CCN(C5CCCC5)CC4)c3)n2C)c(-c2cc(F)c3c(c2C)CCCO3)c1[C@H](OC(C)(C)C)C(=O)O` (atropisomer, axis not shown) [Example 91]: the IC50 was determined as 12.2 nM.

As for `Cc1nc2c(cc(-c3ccnc(N4CCN(S(C)(=O)=O)CC4)c3)n2C)c(-c2cc(F)c3c(c2C)CCCO3)c1[C@H](OC(C)(C)C)C(=O)O` (atropisomer, axis not shown) [Example 92], the IC50 came to 19.6 nM.

For the molecule `Cc1nc2c(cc(-c3ccnc(N4CCN(c5ncccn5)CC4)c3)n2C)c(-c2cc(F)c3c(c2C)CCCO3)c1[C@H](OC(C)(C)C)C(=O)O` (atropisomer, axis not shown) [Example 93], the IC50 is 23.9 nM.

For `Cc1nc2c(cc(-c3ccnc(N4CCCN(C)CC4)c3)n2C)c(-c2cc(F)c3c(c2C)CCCO3)c1[C@H](OC(C)(C)C)C(=O)O` (atropisomer, axis not shown) [Example 94], the IC50 was 50.8 nM.

As for `CC(=O)N1CCCN(c2cc(-c3cc4c(-c5cc(F)c6c(c5C)CCCO6)c([C@H](OC(C)(C)C)C(=O)O)c(C)nc4n3C)ccn2)CC1` (atropisomer, axis not shown) [Example 95], the IC50 turned out to be 52.4 nM.

With `Cc1nc2c(cc(-c3ccnc(N4CCCNCC4)c3)n2C)c(-c2cc(F)c3c(c2C)CCCO3)c1[C@H](OC(C)(C)C)C(=O)O` (atropisomer, axis not shown) [Example 96], the IC50 was 350 nM.

As to `Cc1nc2c(cc(-c3ccnc(N4CCCN(S(C)(=O)=O)CC4)c3)n2C)c(-c2cc(F)c3c(c2C)CCCO3)c1[C@H](OC(C)(C)C)C(=O)O` (atropisomer, axis not shown) [Example 97], the IC50 came to 16.5 nM.

As for `Cc1nc2c(cc(-c3ccnc(N4CCCN(C(C)C)CC4)c3)n2C)c(-c2cc(F)c3c(c2C)CCCO3)c1[C@H](OC(C)(C)C)C(=O)O` (atropisomer, axis not shown) [Example 98], the IC50 is 16.2 nM.

As to `Cc1nc2c(cc(-c3ccnc(N4C[C@H]5CC[C@@H]4C5)c3)n2C)c(-c2cc(F)c3c(c2C)CCCO3)c1[C@H](OC(C)(C)C)C(=O)O` (atropisomer, axis not shown) [Example 99], the half-maximal inhibitory concentration (IC50) is 14.8 nM.

As to `CC1=CCN(c2cc(-c3cc4c(-c5cc(F)c6c(c5C)CCCO6)c([C@H](OC(C)(C)C)C(=O)O)c(C)nc4n3C)ccn2)CC1` (atropisomer, axis not shown) [Example 100], the IC50 was found to be 14.2 nM.

As to `Cc1nc2c(cc(-c3ccnc(N4CCCN(C(=O)C5CCCC5)CC4)c3)n2C)c(-c2cc(F)c3c(c2C)CCCO3)c1[C@H](OC(C)(C)C)C(=O)O` (atropisomer, axis not shown) [Example 101], the IC50 was 67.4 nM.

Regarding `Cc1nc2c(cc(-c3ccnc(N4CCCN(C(=O)C(C)C)CC4)c3)n2C)c(-c2cc(F)c3c(c2C)CCCO3)c1[C@H](OC(C)(C)C)C(=O)O` (atropisomer, axis not shown) [Example 102], the IC50 is 45 nM.

For `COCCN1CCCN(c2cc(-c3cc4c(-c5cc(F)c6c(c5C)CCCO6)c([C@H](OC(C)(C)C)C(=O)O)c(C)nc4n3C)ccn2)CC1` (atropisomer, axis not shown) [Example 103], the IC50 was 45 nM.

Turning to `Cc1nc2c(cc(-c3ccnc(N4CCCN(C(=O)C5CC5)CC4)c3)n2C)c(-c2cc(F)c3c(c2C)CCCO3)c1[C@H](OC(C)(C)C)C(=O)O` (atropisomer, axis not shown) [Example 104], the IC50 came to 37.5 nM.

As to `Cc1nc2c(cc(-c3ccnc(N4CCc5cc(-n6c(C)ccc6C)ccc5C4)c3)n2C)c(-c2cc(F)c3c(c2C)CCCO3)c1[C@H](OC(C)(C)C)C(=O)O` (atropisomer, axis not shown) [Example 106], the half-maximal inhibitory concentration (IC50) is 45 nM.

Take `Cc1nc2c(cc(-c3ccnc(N4CCCN(C(=O)C5CCOCC5)CC4)c3)n2C)c(-c2cc(F)c3c(c2C)CCCO3)c1[C@H](OC(C)(C)C)C(=O)O` (atropisomer, axis not shown) [Example 108]: the IC50 is 131 nM.

On to `COc1ccccc1[C@H]1[C@@H]2CN(c3cc(-c4cc5c(-c6cc(F)c7c(c6C)CCCO7)c([C@H](OC(C)(C)C)C(=O)O)c(C)nc5n4C)ccn3)C[C@@H]21` (atropisomer, axis not shown) [Example 109], for which the IC50 is 121 nM.

Take `Cc1nc2c(cc(-c3ccnc(N4C[C@@H]5CC[C@@H](C5)C4)c3)n2C)c(-c2cc(F)c3c(c2C)CCCO3)c1[C@H](OC(C)(C)C)C(=O)O` (atropisomer, axis not shown) [Example 111]: the IC50 came to 27.5 nM.

Regarding `Cc1nc2c(cc(-c3ccnc(N4CCCN(C5CCOCC5)CC4)c3)n2C)c(-c2cc(F)c3c(c2C)CCCO3)c1[C@H](OC(C)(C)C)C(=O)O` (atropisomer, axis not shown) [Example 113], the IC50 was 20 nM.

As for `Cc1nc2c(cc(-c3ccnc(N4CCCN(S(=O)(=O)C5CC5)CC4)c3)n2C)c(-c2cc(F)c3c(c2C)CCCO3)c1[C@H](OC(C)(C)C)C(=O)O` (atropisomer, axis not shown) [Example 114], the IC50 is 25 nM.

Take `Cc1nc2c(cc(-c3ccnc(N4CCN(C(=O)N(C)C)CC4)c3)n2C)c(-c2cc(F)c3c(c2C)CCCO3)c1[C@H](OC(C)(C)C)C(=O)O` (atropisomer, axis not shown) [Example 115]: the IC50 was 15.6 nM.

On to `Cc1nc2c(cc(-c3ccnc(N4CCCN(C5CCC5)CC4)c3)n2C)c(-c2cc(F)c3c(c2C)CCCO3)c1[C@H](OC(C)(C)C)C(=O)O` (atropisomer, axis not shown) [Example 117], for which the IC50 amounted to 39.1 nM.

Regarding `Cc1nc2c(cc(-c3ccnc(N4CCN(C5CC5)CC4)c3)n2C)c(-c2cc(F)c3c(c2C)CCCO3)c1[C@H](OC(C)(C)C)C(=O)O` (atropisomer, axis not shown) [Example 118], the IC50 is 15 nM.

With `COCCS(=O)(=O)N1CCCN(c2cc(-c3cc4c(-c5cc(F)c6c(c5C)CCCO6)c([C@H](OC(C)(C)C)C(=O)O)c(C)nc4n3C)ccn2)CC1` (atropisomer, axis not shown) [Example 119], the half-maximal inhibitory concentration (IC50) was 20 nM.

Take `Cc1nc2c(cc(-c3ccnc(N4CC[C@@H](N(C)C)C4)c3)n2C)c(-c2cc(F)c3c(c2C)CCCO3)c1[C@H](OC(C)(C)C)C(=O)O` (atropisomer, axis not shown) [Example 120]: the IC50 was found to be 45 nM.

On to `Cc1nc2c(cc(-c3ccnc(N4C[C@@H]5CC[C@H]4CN(C4COC4)C5)c3)n2C)c(-c2cc(F)c3c(c2C)CCCO3)c1[C@H](OC(C)(C)C)C(=O)O` (atropisomer, axis not shown) [Example 122], for which the IC50 came to 11.6 nM.

`COCCC(=O)N1CCCN(c2cc(-c3cc4c(-c5cc(F)c6c(c5C)CCCO6)c([C@H](OC(C)(C)C)C(=O)O)c(C)nc4n3C)ccn2)CC1` (atropisomer, axis not shown) [Example 125]: the IC50 turned out to be 41.5 nM.

In the case of `Cc1nc2c(cc(-c3ccnc(N4CCN(C5CCOCC5)CC4)c3)n2C)c(-c2cc(F)c3c(c2C)CCCO3)c1[C@H](OC(C)(C)C)C(=O)O` (atropisomer, axis not shown) [Example 127], the IC50 was determined as 3.6 nM.

Consider `Cc1nc2c(cc(-c3ccnc(N4CCCN(C5(C)COC5)CC4)c3)n2C)c(-c2cc(F)c3c(c2C)CCCO3)c1[C@H](OC(C)(C)C)C(=O)O` (atropisomer, axis not shown) [Example 128], for which the IC50 came out at 10.3 nM.

With `Cc1nc2c(cc(-c3cnn(CC4CN(C5CCOCC5)C4)c3)n2C)c(-c2cc(F)c3c(c2C)CCCO3)c1[C@H](OC(C)(C)C)C(=O)O` (atropisomer, axis not shown) [Example 130], the IC50 was found to be 291 nM.

Take `Cc1nc2c(cc(-c3ccc(F)cc3)n2C)c(-c2cc(F)c3c(c2C)CCCO3)c1[C@H](OC(C)(C)C)C(=O)O` (atropisomer, axis not shown) [Example 131]: the IC50 amounted to 89.5 nM.

As to `CCCn1cc(-c2cc3c(-c4cc(F)c5c(c4C)CCCO5)c([C@H](OC(C)(C)C)C(=O)O)c(C)nc3n2C)cn1` (atropisomer, axis not shown) [Example 132], the IC50 is 32.9 nM.

As to `Cc1nc2c(cc(-c3cnn(C4CCN(C5COC5)CC4)c3)n2C)c(-c2cc(F)c3c(c2C)CCCO3)c1[C@H](OC(C)(C)C)C(=O)O` (atropisomer, axis not shown) [Example 133], the IC50 was 104 nM.

Take `Cc1nc2c(cc(-c3ccc4c(cnn4C)c3)n2C)c(-c2cc(F)c3c(c2C)CCCO3)c1[C@H](OC(C)(C)C)C(=O)O` (atropisomer, axis not shown) [Example 134]: the IC50 stood at 39.2 nM.

`Cc1nc2c(cc(-c3ccc4c(c3)N(C)CCO4)n2C)c(-c2cc(F)c3c(c2C)CCCO3)c1[C@H](OC(C)(C)C)C(=O)O` (atropisomer, axis not shown) [Example 135]: the IC50 was determined as 126 nM.

As to `Cc1nc2c(cc(-c3ccc4nccn4c3)n2C)c(-c2cc(F)c3c(c2C)CCCO3)c1[C@H](OC(C)(C)C)C(=O)O` (atropisomer, axis not shown) [Example 136], the IC50 is 42.5 nM.

On to `Cc1nc2c(cc(-c3ccc4c(c3)CCN(C)C4=O)n2C)c(-c2cc(F)c3c(c2C)CCCO3)c1[C@H](OC(C)(C)C)C(=O)O` (atropisomer, axis not shown) [Example 137], for which the IC50 is 43.8 nM.

Usually IC50 stands for the concentration at which inhibition is half-maximal.
